Values quoted from earlier work, collected in patent US20220000855A1, “AN AURORA A KINASE INHIBITOR FOR USE IN THE TREATMENT OF NEUROBLASTOMA” (Eli Lilly and Company, priority 2018, published 2022).

Settings: background statement

Compound | neutropenia and other toxic effects associated with use
COc1cc(Nc2ncc3c(n2)-c2ccc(Cl)cc2C(c2c(F)cccc2OC)=NC3)ccc1C(=O)O [alisertib] | unacceptably high levels of neutropenia and other toxic effects
Cc1cc(Nc2cc(N3CCN(C)CC3)nc(Sc3ccc(NC(=O)C4CC4)cc3)n2)[nH]n1 [tozasertib] | unacceptably high levels of neutropenia and other toxic effects
